Data on two compounds can be found in ChEMBL document CHEMBL5321225, “DeepCancerMap: A versatile deep learning platform for target- and cell-based anticancer drug discovery” (Eur J Med Chem, 2023).

The structures appear in SMILES notation. Some results are limits rather than exact numbers.

Assay [1] concerns CNE-2. The experiment in a line: Antiproliferative activity against human CNE-2 cells assessed as reduction in cell viability. In kind it is functional, cell-based.
Assay [2] concerns A549. In words: Antiproliferative activity against human A549 cells assessed as reduction in cell viability. In kind it is functional, cell-based.

For `CCCCCCC(=O)Nc1ncc(Cc2ccc(OC)cc2)s1`, the IC50 is 2030 nM in assay [1] and greater than 50000 nM in assay [2].

For `Cc1ccc(C(=O)Nc2ncc(Cc3cccc(Cl)c3)s2)cc1`, the IC50 in assay [1] was 2990 nM; in assay [2], greater than 50000 nM.
